Consider one compound from paper PMC8997995, “Amphiphilic Cell-Penetrating Peptides Containing Natural and Unnatural Amino Acids as Drug Delivery Agents” (Cells, 2022).

Common to all, as to format: cell-based, human
Data set [1] concerns MDA-MB-231 cells. The experiment in a line: Confocal microscopy of cellular uptake. The conditions noted are these: MDA-MB-231, F’-GpYEEI 2 µM + peptide 10 μM, 3 h, 37 °C. On the procedure: Coverslips were placed in a 6-well plate wells and covered with 2 mL of media. Human epithelial mammary gland/breast adenocarcinoma cells (MDA-MB-231, ATCC No. HTB-26) were used. 200,000 cells per well were seeded with DMEM media low glucose (4 mM L-glutamine, 1000 mg/L glucose, and 110 mg/L sodium pyruvate) overnight on a cover glass in 6-well plates. The cells were treated with the physical mixture of F’-GpYEEI and [DipR]5 (10 μM) or F’-[K(DipR)5] in DMEM media low glucose without FBS and incubated for 3 h at 37 °C in a humidified atmosphere of 5% CO2. Next, the media was removed, and cells were washed three times with 2 mL PBS in each well. Cells were fixed in 2 mL of 3.7% formaldehyde for 10 min and were washed 3 times in PBS (pH 7.6). 1 mL of the Texas red solution was pipetted (40 µL of Texas Red and 100 mg BSA in 10 mL of PBS) in each well to stay for 1 h at room temperature. The cells were washed at least 3 times with 2 mL of PBS for 5 min. The nucleic staining with 13 µL of DAPI on each slide was completed. Cells were covered with a coverslip carefully without air bubbles. The slide dried horizontally overnight in a dark place that had airflow. The cells were photographed and video recorded by using Nikon Instruments A1 Confocal Laser Microscope Series. […]

Data set [2] concerns MDA-MB-468 cells. The experiment in a line: In vitro cytotoxicity (MTS) in MDA-MB-468 cells. The conditions noted are these: MDA-MB-468, 10 µM, 24 h and 72 h incubation. On the procedure:
SK-OV-3, CCRF-CEM, HEK-293, MDA-MB-468, LLC-PK1, and MES-SA were used to determine the cytotoxicity of the synthesized linear and cyclic peptides. About 5000, 10,000, and 50,000 cells were seeded for SK-OV-3, HEK-293, and CCRF-CEM cells, respectively, in 0.1 mL of medium per well of 96-well plates. […]
Adhesive cells were detached with 0.05% trypsin/EDTA after 15 min. […] The cell viability was measured by utilizing Multi-Mode Microplate Reader (SpectraMax M5 model, Molecular Devices, San Jose, CA, USA) after adding 20 µL of the MTS reagent to each well and incubating for 3 additional hours. […] The percentage of cell viability was calculated using the following equation:(1) =(Average OD values of samples treated with the compound /Average OD values of no treatment samples )∗100

For data set [3], the system named is SK-OV-3 cells. As to the kind of experiment: Cellular uptake by flow cytometry in SK-OV-3 cells. Particulars: SK-OV-3, F’-FTC 2 µM, peptide 10 µM, 3 h. The method, then: CCRF-CEM and SK-OV-3 cells were used to measure the cellular uptake of a fluorescent-labeled phosphopeptide (F’-GpYEEI) (2 µM), stavudine (F’-d4T) (2 µM) lamivudine (F’-3TC) (1–2 µM), emtricitabine (F’-FTC) (2 µM), and siRNA (F’-siRNA) (36 nM) with the least toxic concentration for each linear and the cyclic peptide (10 µM). The uptake was measured in the presence and absence of the peptides. The SK-OV-3 (0.5 million) and CCRF-CEM (a million) cells were incubated in each well of 6-well plates with the synthesized peptide and the fluorescent-labeled compound in one well. Another well contained the fluorescent-labeled compound alone for 3 h in an incubator (37 °C in a humidified atmosphere of 5% CO2). […] For more details, please refer back to the cytotoxicity method described above.
The cells were transferred to FACS analysis tubes after being washed with phosphate-buffered saline (PBS). […] Finally, the cells were resuspended in flow cytometry buffer and analyzed by flow cytometry (FACSVerse model, Becton Dickinson, San Jose, CA, USA) using the FITC channel and the BD FACSuite software. […] Finally, the cells were analyzed by using FITC channel […] argon laser for the excitation and the emitted 519 nm fluorescence for detection. […] Results were evaluated to determine whether the peptides are facilitating the fluorescence compound to cross the membrane.
Background: In flow cytometry, cells or beads pass a laser one at a time.

Non-standard residues stand in square brackets, D forms with d. Residues, ends and D or L forms follow the SMILES beside them. Dip = N[C@H](C(=O)O)C(c1ccccc1)c1ccccc1

Turning to `N=C(N)NCCC[C@@H]1NC(=O)[C@H](C(c2ccccc2)c2ccccc2)NC(=O)[C@H](CCCNC(=N)N)NC(=O)[C@H](C(c2ccccc2)c2ccccc2)NC(=O)[C@H](CCCNC(=N)N)NC(=O)[C@H](C(c2ccccc2)c2ccccc2)NC(=O)[C@H](CCCNC(=N)N)NC(=O)[C@H](C(c2ccccc2)c2ccccc2)NC(=O)[C@H](CCCNC(=N)N)NC(=O)[C@H](C(c2ccccc2)c2ccccc2)NC1=O` [[DipR]5] (cyclo([Dip]R[Dip]R[Dip]R[Dip]R[Dip]R)), in data set [1], the “localization of F’-GpYEEI delivered by the peptide” value is “mostly localized in the cytosol”. Further, the cytotoxicity result in data set [2] is “no significant cytotoxicity”. Further, in data set [3], the “increase of cellular uptake of F’-FTC” value was found to be 6 fold.
